Some test systems named below: 786-0 renal; CCRF-CEM leukemia; HOP-92 NSCLC; HT29 colon; KM12 colon; LOX IMVI melanoma; SK-MEL-5 melanoma; SN12C renal.
What all share (experiment): DTP human tumour cell line panel, 48 h

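Dose response: 5 concentrations. Exposure: 48 h. Format: 96-well plates. Endpoint: linear interpolation; highest concentration if not reached. GI50 = concentration required for 50% inhibition of growth. TGI denotes the concentration required for complete inhibition of growth.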

In general, GI50 refers to the concentration that inhibits growth by half. For orientation: TGI means the concentration at which net growth stops. A high value points to lower sensitivity of the cells. In the case of `COc1ccc(-c2conc2-c2ccccc2)cc1`, the GI50 with 786-0 renal is 1.28 µM; in the assay on CCRF-CEM leukemia, 0.292 µM; with HOP-92 NSCLC it was 4.58 µM; with HT29 colon, 0.112 µM; with KM12 colon, 0.108 µM; with LOX IMVI melanoma, 0.612 µM. The GI50 is 0.441 µM in the assay on SK-MEL-5 melanoma and 1 µM in the assay with SN12C renal. Besides, the TGI in the assay with 786-0 renal was 53 µM; in the assay on CCRF-CEM leukemia, above 100 µM; in the assay with HOP-92 NSCLC it was above 76.4 µM; in the assay on HT29 colon, above 100 µM; in the assay on KM12 colon, 11 µM; in the assay with LOX IMVI melanoma, above 100 µM. The TGI is 4.47 µM in the assay with SK-MEL-5 melanoma and above 100 µM in the assay with SN12C renal.
As to `N#CC1=C(N)Oc2c(sc3c(Br)cccc23)C1c1ccc(F)cc1` (configuration not stated), the GI50 in the assay on 786-0 renal was 0.525 µM; in the assay on CCRF-CEM leukemia it was 0.381 µM; with HOP-92 NSCLC, 11.5 µM; in the assay on HT29 colon it was 0.367 µM; in the assay on KM12 colon it was 0.361 µM; in the assay with LOX IMVI melanoma, 0.695 µM. Also, the 50% growth inhibitory concentration (GI50) is 0.371 µM with SK-MEL-5 melanoma and 1.22 µM in the assay with SN12C renal. Besides, the TGI with 786-0 renal was 14.2 µM; in the assay with CCRF-CEM leukemia it was 13 µM; in the assay on HOP-92 NSCLC, 32.2 µM; in the assay on HT29 colon, 10.3 µM; in the assay with KM12 colon it was 15.2 µM; in the assay on LOX IMVI melanoma it was 15.2 µM. The TGI turned out to be 12.9 µM in the assay with SK-MEL-5 melanoma and 18.7 µM in the assay on SN12C renal.
With `COc1ccc(-c2cn(-c3cc(OC)c(OC)c(OC)c3)c(=O)n2-c2ccccc2)cc1`, the GI50 is 38.9 µM with 786-0 renal; above 100 µM with CCRF-CEM leukemia; 11.6 µM with HOP-92 NSCLC; 60.6 µM in the assay with HT29 colon; above 100 µM in the assay on KM12 colon; above 100 µM in the assay with LOX IMVI melanoma. Moreover, the GI50 in the assay on SK-MEL-5 melanoma was 21.5 µM; in the assay on SN12C renal, 84.3 µM. In addition, the TGI was above 100 µM with 786-0 renal; above 100 µM in the assay on CCRF-CEM leukemia; 36.9 µM in the assay with HOP-92 NSCLC; above 100 µM in the assay with HT29 colon; above 100 µM with KM12 colon; above 100 µM in the assay on LOX IMVI melanoma. Moreover, the TGI in the assay on SK-MEL-5 melanoma and with SN12C renal was above 100 µM in each case.
Regarding `CN1CCN(CCCOc2ccc3ncnc(Nc4ccc(Oc5cccc(F)c5)c(Cl)c4)c3c2)CC1`, the GI50 was 1.61 µM with 786-0 renal; 1.97 µM in the assay with CCRF-CEM leukemia; 0.907 µM in the assay on HOP-92 NSCLC; 1.55 µM with HT29 colon; 1.81 µM in the assay with KM12 colon; 1.7 µM in the assay with LOX IMVI melanoma. The GI50 is 1.62 µM with SK-MEL-5 melanoma and 1.39 µM in the assay on SN12C renal. Further, the TGI with 786-0 renal was 3 µM; with CCRF-CEM leukemia, 8.21 µM; with HOP-92 NSCLC, 2.26 µM; with HT29 colon, 4.11 µM; in the assay on KM12 colon, 3.39 µM; in the assay on LOX IMVI melanoma, 3.1 µM. Moreover, the total growth inhibition concentration (TGI) came to 3.01 µM with SK-MEL-5 melanoma and 2.74 µM in the assay on SN12C renal.
Regarding `CCOc1cccc(/C=N/NC(=O)Cc2ccc(Nc3ccnc(C(F)(F)F)c3)cc2)c1O`, the GI50 in the assay on 786-0 renal was 2.85 µM; in the assay on CCRF-CEM leukemia, 0.328 µM; in the assay with HOP-92 NSCLC, 1.9 µM; in the assay on HT29 colon, 8 µM; with KM12 colon, 3.73 µM; with LOX IMVI melanoma, 1.49 µM. Also, the GI50 is 1.67 µM in the assay with SK-MEL-5 melanoma and 4.58 µM in the assay on SN12C renal. Further, the TGI with 786-0 renal was 74.9 µM; in the assay with CCRF-CEM leukemia, 2.76 µM; in the assay on HOP-92 NSCLC, 9.93 µM; in the assay on HT29 colon it was 78.6 µM; in the assay on KM12 colon, 84.3 µM; with LOX IMVI melanoma, above 100 µM. The values for the TGI in the assay on SK-MEL-5 melanoma and with SN12C renal were 5.99 µM and above 100 µM, respectively.
In the case of `O=C(Nc1nc2ccc(F)cc2s1)c1cccnc1Nc1ccc(Cl)cc1Cl`, the GI50 with 786-0 renal was 3.28 µM; in the assay with CCRF-CEM leukemia, 1.82 µM; in the assay on HOP-92 NSCLC it was 1.4 µM; in the assay with HT29 colon, 2.05 µM; in the assay with KM12 colon, 2.78 µM; with LOX IMVI melanoma, 3.62 µM. The values for the GI50 in the assay with SK-MEL-5 melanoma and in the assay on SN12C renal were 1.87 µM and 2.65 µM, respectively. Besides, the TGI turned out to be 12.2 µM in the assay with 786-0 renal; 12.6 µM with CCRF-CEM leukemia; 5.15 µM in the assay on HOP-92 NSCLC; 9.75 µM in the assay on HT29 colon; 9.54 µM in the assay on KM12 colon; 14.6 µM in the assay on LOX IMVI melanoma. The TGI with SK-MEL-5 melanoma is 6.11 µM; in the assay with SN12C renal it was 13.7 µM.
As for `O=C1Nc2ccc(Br)cc2C1=Nc1ccc(Cl)cc1`, the TGI in the assay on 786-0 renal was above 100 µM; in the assay on CCRF-CEM leukemia it was 51.9 µM; with HOP-92 NSCLC, above 100 µM; in the assay on HT29 colon, 38.5 µM; in the assay on KM12 colon it was 24.8 µM; in the assay with LOX IMVI melanoma, 31.8 µM. The TGI in the assay with SK-MEL-5 melanoma is 20.1 µM; in the assay on SN12C renal, 31.2 µM.
In the case of `CC(=O)c1c(Nc2ccc(F)c(F)c2F)[nH]c2c(F)cc(F)cc2c1=O`, the GI50 was 0.368 µM in the assay with 786-0 renal; 0.368 µM in the assay with CCRF-CEM leukemia; 0.116 µM in the assay with HOP-92 NSCLC; 0.356 µM in the assay with HT29 colon; 0.342 µM in the assay with KM12 colon; 0.333 µM in the assay on LOX IMVI melanoma. Moreover, the GI50 with SK-MEL-5 melanoma is 0.188 µM; with SN12C renal, 0.277 µM. Besides, the concentration for total growth inhibition (TGI) in the assay on 786-0 renal is 15.1 µM; in the assay with CCRF-CEM leukemia, above 100 µM; in the assay with HOP-92 NSCLC, 0.466 µM; in the assay on HT29 colon it was 17.5 µM; in the assay with KM12 colon, 5.57 µM; in the assay on LOX IMVI melanoma, 11.3 µM. Besides, the TGI amounted to 0.431 µM in the assay with SK-MEL-5 melanoma and 3.45 µM with SN12C renal.
Turning to `Cc1cc(C(=O)Nc2cc(Nc3ncccc3-c3ncnc4nc[nH]c34)ccc2F)cc(C(C)(C)C#N)c1`, the GI50 with 786-0 renal was 13.9 µM; in the assay on CCRF-CEM leukemia, 3.47 µM; with HOP-92 NSCLC it was 0.145 µM; with HT29 colon, 0.0739 µM; with KM12 colon it was 2.9 µM; in the assay on LOX IMVI melanoma, 0.0414 µM. Further, the GI50 in the assay with SK-MEL-5 melanoma is 1.38 µM; with SN12C renal it was 1.91 µM. In addition, the TGI in the assay with 786-0 renal is above 100 µM; in the assay with CCRF-CEM leukemia, above 100 µM; in the assay with HOP-92 NSCLC, 1.45 µM; in the assay with HT29 colon, above 100 µM; with KM12 colon, above 100 µM; in the assay on LOX IMVI melanoma it was 0.338 µM. For the same compound, the TGI was 13.7 µM with SK-MEL-5 melanoma and above 100 µM in the assay on SN12C renal.
For `Cc1cc2c(-c3nc4ccccn4c3NC34CC5CC(CC(C5)C3)C4)c(O)c(O)cc2c(O)c1-c1c(C)cc2c(-c3nc4ccccn4c3NC34CC5CC(CC(C5)C3)C4)c(O)c(O)cc2c1O`, the GI50 in the assay on 786-0 renal is 0.932 µM; in the assay on CCRF-CEM leukemia it was 0.115 µM; in the assay with HOP-92 NSCLC, 0.616 µM; in the assay with HT29 colon it was 0.788 µM; with KM12 colon it was 0.11 µM; in the assay with LOX IMVI melanoma, 0.412 µM. In addition, the GI50 in the assay on SK-MEL-5 melanoma is 0.564 µM; in the assay on SN12C renal, 0.716 µM. In addition, the TGI in the assay on 786-0 renal was 5.09 µM; in the assay on CCRF-CEM leukemia it was above 25 µM; in the assay on HOP-92 NSCLC, 1.88 µM; in the assay with HT29 colon, above 25 µM; with KM12 colon, 11.7 µM; in the assay on LOX IMVI melanoma it was 3.38 µM. The values for the TGI with SK-MEL-5 melanoma and in the assay on SN12C renal were 1.51 µM and above 25 µM, respectively.

Values taken from PubChem BioAssay (NCI).
